Data from US20100267638A1, “EXOSITE-DIRECTED THROMBIN INHIBITORS” (CLEVELAND STATE UNIVERSITY, priority 2003, published 2010).
“Also recorded” adds a separate entry of the source. No end group written: not given here.

Legend:
[1] = biological target: T1, active-site-immobilized thrombin (Homo sapiens, UniProt P00734); assay: Direct binding of the peptides to thrombin-agarose (chromatography); conditions: 400 μg peptide, 2.5 ml column, elution 2M NaCl
T1 construct: Factor Xa cleaves prothrombin to form thrombin; purchased Haematologic Technologies Inc. (Essex Junction, Vt.)
Protocol: Direct binding of the peptides to thrombin. Thrombin was immobilized onto agarose through the active site as described. Peptide solutions of HC1-HC5 (SEQ ID NO. 2-6, respectively), D13R (SEQ ID NO. 21), DYDYQ (SEQ ID NO. 11), and P15H (SEQ ID NO. 22) were dissolved in water to a given concentration and then diluted in 20 mM Hepes, 0.1 M NaCl, pH 7.4 in a manner that 400 μg was contained in each starting solution. In control experiments it was determined that the maximum amount of peptide that could be retained by the thrombin-agarose column was 400 μg. Since some of the peptides contain aromatic amino acid residues, their concentration was also measured by optical density.
Mass spectrometry instruments and conditions. The identity of all peptides found in the flow-through or the elution of the thrombin-agarose column was verified by mass spectrometry. Since the peptides were in a buffer solution, we used Liquid Chromatography/Mass Spectrometry (LC/MS) for their identification. In this procedure peptides are first separated from the salt content of the buffer using an HPLC system (HP 1100, HPLC gradient system, Agilent Technologies, Palo Alto Calif.) with a C18 column (1 mm×15 cm, GraceVydac, Hesperia Calif.) with buffers A (0.3% acetic acid in water) and B (0.3% acetic acid in acetonitrile). The elution of the column was monitored with a Micromass Quatro II ESI-Triple Quadrupole Mass Spectrometer (Waters, Milford Mass.). The data were collected using a Compaq Professional Workstation AP200 (Hewlett-Packard, Palo Alto Calif.) and analyzed by the software MassLynx v3.3 (Waters, Milford Mass.).
Direct interaction of hirudin-like peptides from factor tor Va heavy chain With thrombin-agarose. To ascertain that the peptides of interest are inhibitory of prothrombinase activity and contain a binding site for thrombin, the interaction of all peptides with active-site-immobilized thrombin was studied in chromatographic experiments and is shown in FIG. 5. In FIG. 5, small scale chromatography of hirudin-like peptides was performed on a 2.5 ml thrombin-agarose. Each run represents 400 μg of peptide. This amount of peptide was determined to saturate the specific sites of thrombin of the column used (2.5 ml). Elution was performed with 2M NaCl and was started at the point indicated by the arrow (fraction #30). The presence of the peptides in the corresponding fractions was monitored by absorbance at 280 nm (shown on the y axis) and by LC/MS (inset). […] Specifically, these peptides were treated similarly to all other peptides and similar fractions were collected. Aliquots from fractions #7 and #35 from each separate experiment were submitted to LC/MS analysis as described herein (depicted by the hatched arrows at the bottom of the chromatogram). The results from tube #7 from three chromatograms are depicted. The data are presented as % intensity of the signal as a function of the mass of the peptide divided by the charge (m/z). FIG. 5A, HC1 (Mr calculated 1268); FIG. 5B, HC2 (Mr calculated 1132); FIG. 5C, HC5 (Mr calculated 1053). The spectrum of HC1 has two major peaks: at 635.5 and at 424, and one minor peak at 1270 (1268+1). The peak at 635.5 represents the peptide (mass/charge) with two positive charges ([…]) i.e. [(1268+2=1270)]/2=635 whereas, the peak at 424 represents HC1 with three positive charges ([…]) i.e. [(1268+3=1271)]/3=424. […] HC5 spectrum has two major peaks: one at 528 and one at 352. The peak at 528 represents the peptide with two positive charges ([…]) i.e. [(1053+2=1055)]/2=527.5 while, the other peak represents HC5 with three positive charges ([M+31-]^2+) i.e. [(1053+3=1056)]/3=352. The minor peak at 1054 represents the peptide with one charge. It is noteworthy, that in gas phase the number of protons attached to each peptide depends on the number (quantity) of basic residues contained in each peptide. […] Thus, HC1 and HC5 are more likely to bind two or three protons than HC2. […]

[2] = biological target: T2, prothrombinase (Homo sapiens, UniProt P00734); assay: Assay measuring thrombin formation (prothrombinase inhibition by peptides, DAPA fluorescence); format: biochemical
T2 construct: purchased Haematologic Technologies Inc. (Essex Junction, Vt.)

## DYDYQ [DYDYQ, Asp-Tyr-Asp-Tyr-Gln]
[1]
  interaction with immobilized thrombin (thrombin-agarose): eluted from the column with high-salt buffer; also recorded: interact with immobilized thrombin
[2]; FIG. 3A
  concentration at which complete inhibition of prothrombinase occurred: 40 µM
[2]; FIG. 10A, up to 8000 nM
  inhibition of prothrombinase activity with increasing peptide: decrease in the activity of prothrombinase
[2]; calculated from IC50 of 1.6 μM as in FIG. 2C legend, read-out: Ki for inhibition of prothrombinase
  Ki: 0.85 µM
[2]; factor Va 4 nM, factor Xa 10 nM, prothrombin 350 nM, PCPS 10 μM, peptide preincubated with factor Va
  IC50: 1.6 µM
